The IC50 is the concentration needed to halve the response being measured.

Data on 87 molecules can be found in PubChem BioAssay AID602464 (Sanford-Burnham Center for Chemical Genomics, 2012).

This assay concerns Gli-responsive luciferase reporter cells, SUFU pathway antagonism. Kind of assay: blockers of Gli reporter signaling – cell-based, luciferase luminescence, uHTS hits, dose response (AID 602464).

Structures are written as SMILES. Activity calls are given as the source filed them. Rule as the data show it: active = IC50 below about 20 µM; inactive = the rest.

`CCn1c(=NC(=O)CS(=O)(=O)c2ccccc2)sc2cccc(OC)c21`: the IC50 was 3.95 µM. Consider `CCCCNc1c(-c2ccc(OC)c(Sc3ccc(OC)cc3)c2)nc2ccccn12`, for which the IC50 is 6.31 µM. For `CCOC(=O)c1c(NC(=O)COc2ncnc3ccccc23)sc(C(C)=O)c1C` the value was 10.1 µM. For `Cc1cc(=O)[nH]c(SCC(=O)/C=C2\N(C)c3ccccc3C2(C)C)n1` the value was 5.13 µM; for `CCN1CCCC1CNc1ncnc2c1[nH]c1ccc(Cl)cc12` (configuration not stated), > 20 µM (inactive); for `O=[N+]([O-])c1ccc(N2CCN(C(=S)NCc3ccc(Cl)cc3)CC2)cc1`, 11.9 µM. For `c1ccc2c(c1)OCC(CNc1ncnc3sccc13)O2` (configuration not stated) the value was 0.887 µM. With `N=c1c(-c2nc3ccccc3[nH]2)cc(C(=O)c2ccco2)nn1-c1ccccc1`, the IC50 is > 20 µM (inactive). For `CCCCSc1nc2sc3c(c2c(=O)n1-c1ccc(C)cc1)CCN(C)C3` the value was 17.9 µM.

As for `O=C(Cn1cc(C(=O)C2CC2)c2ccccc21)Nc1ccccc1Cl`, the IC50 is 11.2 µM. For `NC(=O)c1c(-c2ccc(Cl)cc2Cl)csc1NC(=O)Cc1ccccc1` the value was 7.97 µM; for `COc1ccc(NS(=O)(=O)c2cccc(NC(=O)c3ccc(S(=O)(=O)N4CCCCCC4)cc3)c2)cc1`, 7.51 µM. For `Cc1c(C(C)C)c(=O)n(-c2ccc(S(=O)(=O)NCc3ccccc3)cc2)n1C` the value was 3.84 µM. As for `CCn1c(/C=C/Nc2ccccc2)[n+](CC)c2ccc(Cl)cc21`, the IC50 is 18.1 µM. Take `O=C(c1cccc(S(=O)(=O)N2CCN(c3ccccc3)CC2)c1)N1CCCC(C(F)(F)F)C1` (configuration not stated): the IC50 was 8.01 µM. Consider `Cc1cc(C)nc(SCC(=O)Nc2ccc(N3CCOCC3)c(Cl)c2)n1`, for which the IC50 was 3.52 µM. The result for `C[C@@H]1COC(=O)[C@@H](NC(=O)OCC2c3ccccc3-c3ccccc32)C/C=C\C[C@@H](CC(=O)N(CCO)Cc2ccccc2)C(=O)N1` reads > 20 µM (inactive); that for `CC[N+]1=C(C)C(C)(C)c2cc(C)ccc21`, 2.06 µM. Turning to `O=C(NCCc1cccc(Cl)c1)c1ccc(OC2CCN(Cc3ccccn3)CC2)cc1`, the IC50 is 7.72 µM.

In the case of `O=S(=O)(c1ccc2c(c1)nc(COc1ccc(Cl)cc1)n2CC1CCCO1)N1CCOCC1` (configuration not stated), the 50% inhibitory concentration (IC50) was 3.85 µM. `Cc1cccnc1CN1CCN(C(=O)c2cc(COc3ccc4ncccc4c3)on2)CC1`: the IC50 was 5.18 µM.

On to `O=C(NC(c1cccnc1)C(F)(F)F)c1cc(COc2ccc3c(c2)CCCC3)on1` (configuration not stated), for which the IC50 is 10.6 µM. The result for `CN(C)CCn1c2ccccc2c2nc3ccc([N+](=O)[O-])cc3cc21` reads 7.54 µM; that for `CC(=O)/C(=N\Nc1ccc(Cl)cc1Cl)Sc1cccc2cccnc12`, 1.12 µM.

In the case of `CCC(CC)CN1C(N(C)C)=NC[C@@H]1CC(C)C`, the IC50 was 8.27 µM. Consider `CCc1ccc(CN(C)C(=O)c2cc(COc3cccc4cnccc34)on2)cc1`, for which the IC50 is 5.85 µM.

Turning to `CC1Cc2cc(S(=O)(=O)N3CCC(C(=O)N4CCN(c5ccccc5F)CC4)CC3)ccc2N1C(=O)C1CC1` (configuration not stated), the IC50 was 4.27 µM.

Consider `CCc1cc(C(=O)NC2CCCN(Cc3ccccc3F)C2)n(C)n1` (configuration not stated), for which the concentration for half-maximal inhibition (IC50) is 13.1 µM. For `O=C(c1ccc(Cl)cc1)N1CCN(c2ccnc3cc(Cl)ccc23)CC1` the value was 3.01 µM. The result for `CCCCCCC[N+](CC)(CC)CCCCc1ccc(Cl)cc1` reads 5.6 µM; that for `CC(C)C(=O)NC(=S)/C=C1/N(C)c2ccccc2C1(C)C`, 4.76 µM; that for `CCCc1nc(SCC(=O)Nc2nnc(CC)s2)c2c(=O)n(C)c(=O)n(C)c2n1`, 8.48 µM. For `Nc1ccc(Br)cc1-c1nc2ccccc2[nH]c1=O` the value was 0.771 µM. For the molecule `CCCn1c(SCC(=O)Nc2nc(-c3ccc(OC)cc3)cs2)nc2c1c(=O)n(C)c(=O)n2C`, the IC50 was > 20 µM (inactive).

Regarding `CCCCCn1c(=N)n(CC(O)COc2ccccc2OC)c2ccccc21` (configuration not stated), the half-inhibitory concentration (IC50) is 8.43 µM.

As to `CC(=O)c1ccc(-n2cc(-c3ccc(C(C)(C)C)cc3)[n+]3c2SCCC3)cc1`, the 50% inhibitory concentration (IC50) was 9.87 µM.

Turning to `CCCC(C)C(=O)Nc1nc(C)c(-c2csc(Nc3ccc(Cl)cc3)n2)s1` (configuration not stated), the IC50 was 6.48 µM. For the molecule `Cc1ccc(C2=C(CC(=O)O)C(=O)CC2)cc1`, the IC50 was > 20 µM (inactive). Turning to `CN(Cc1nccs1)C(=O)c1cc(COc2cccc3cnccc23)on1`, the IC50 is 12 µM.

Consider `O=C(C1CCCCC1)N1CCN(c2ccnc3cc(Cl)ccc23)CC1`, for which the IC50 is 4.29 µM.

Regarding `c1ccc(C[n+]2cccc(-c3ccccc3)c2)cc1`, the IC50 is 10.8 µM. For `COC(=O)c1cc(S(=O)(=O)N2CCC(c3cc(OC)ccc3OC)C2)c[nH]1` (configuration not stated) the value was 9.96 µM; for `Nc1nc2ccccc2n1/N=C/c1ccc([N+](=O)[O-])s1`, 6.42 µM. As to `Cc1nc2sccn2c1-c1csc(NCc2ccccc2)n1`, the IC50 is 9.83 µM. For `COc1ccc(C2=[N+](C)CCn3cccc32)c(OC)c1` the value was 10.2 µM; for `CCOc1ccc(NS(=O)(=O)c2cccc(C(=O)N3CCN(C/C=C/c4ccccc4)CC3)c2)cc1`, > 20 µM (inactive). The result for `COc1ccc(NS(=O)(=O)c2ccc(N3CCN(CCO)CC3)c([N+](=O)[O-])c2)cc1` reads 8.77 µM; that for `CCOC(=O)N1CCN(C(=O)c2cc(COc3ccc4ncccc4c3)on2)CC1`, 6.71 µM; that for `Cc1nnsc1C(=O)NC1CCCc2c1cnn2-c1ccc(F)cc1F` (configuration not stated), 8.15 µM.

`Cc1ccc2c(c1)S/C(=C/c1ccc[n+](C)c1)N2CCO`: the IC50 was 15.2 µM. The result for `Cc1sc2ncnc(N3CCN(S(=O)(=O)c4ccc(C(C)(C)C)cc4)CC3)c2c1C` reads 5.43 µM; that for `Cc1ccc(C(=O)N2CCN3C(=O)c4ccccc4C23c2ccc(Cl)cc2)cc1` (configuration not stated), 4.95 µM; that for `O=C(N[C@@H]1C/C=C\C[C@H](CC(=O)N(CCO)Cc2ccccc2)C(=O)N[C@@H](Cc2c[nH]c3ccccc23)COC1=O)OCC1c2ccccc2-c2ccccc21`, 10.9 µM. As for `CCc1c(C)nc2ncnn2c1N1CCN(S(=O)(=O)c2ccc(OC)cc2)CC1`, the 50% inhibitory concentration (IC50) was 6.58 µM.

With `COCCNc1nc2c(c(=O)n(C)c(=O)n2C)n1Cc1cccc(C)c1`, the IC50 is 7.26 µM. As for `CC(C)=CCC/C(C)=C/CNC(=O)C[C@H]1C[C@H](C(=O)N2CCOCC2)[C@@]2(C)c3[nH]c4cc(CCC(=O)N(C)C)ccc4c3CCN2C1=O`, the 50% inhibitory concentration (IC50) is 4.63 µM.

For the molecule `O=C(Cn1cc(C(=O)c2ccco2)c2ccccc21)Nc1ccccc1F`, the IC50 was 4.27 µM.

For the molecule `COC(=O)C1=C(c2cc3ccccc3o2)C[C@@H]2CC[C@H]1N2C(=O)N1CCC(C)CC1`, the IC50 is 16.3 µM. For `COc1ccccc1CCNC(=O)C(=O)NCCC1CCCCN1S(=O)(=O)c1cccs1` (configuration not stated) the value was 8.81 µM; for `Brc1ccc(-c2c[n+]3c(n2-c2ccccc2)SCC3)cc1`, 6.98 µM; for `CCNc1nc(CN2CCCCC2)nc2scc(-c3ccccc3)c12`, 5.95 µM. For `Cc1ccc(O)c(NC(=O)COc2cc(C)ccc2C)c1` the value was 3.34 µM. Turning to `CCN1C(=O)CCN(C2CCCC2)c2nc(Nc3ccc(C(=O)NC4CCN(C)CC4)cc3OC)ncc21`, the IC50 is 3.45 µM. For `O=C(/C=C/c1ccco1)Nc1ccc(-c2nc3ccccc3[nH]2)cc1`, the IC50 was 1.99 µM. Consider `CCCCCCCOc1ccc(OC(=O)c2cccnc2)cc1`, for which the IC50 was 1.06 µM. Turning to `COc1ccc(-c2c(C#N)c(N)nc3c2CCc2ccccc2-3)cc1OC`, the half-maximal inhibitory concentration (IC50) is 6.7 µM. For `COc1ccccc1-c1c(-c2ccc(O)cc2O)n[nH]c1C(F)(F)F` the value was 4.86 µM; for `C=CCOc1nc2c(c(=O)n(C)c(=O)n2C)n1Cc1ccc(Cl)cc1`, 7.97 µM. For the molecule `COc1ccc(Cn2c(-c3ccc(Cl)cc3)c[n+]3ccccc23)cc1`, the IC50 was 7.28 µM. The result for `CNS(=O)(=O)c1cccc(C(=O)OCC(=O)c2cc(C)n(CC3CCCO3)c2C)c1` (configuration not stated) reads 0.735 µM; that for `CC(=O)Nc1ccc(S(=O)(=O)N(Cc2ccccc2)C(C)C)cc1`, 8.29 µM. Consider `COc1ccc(CN(C)C(=O)c2cccc(NC(=O)CC3SC(N4CCCCC4)=NC3=O)c2)c(OC)c1` (configuration not stated), for which the IC50 is 13 µM. For `COc1ccc(-c2c[n+](CC(=O)c3ccccc3)c3n2CCCCC3)cc1` the value was 14.1 µM; for `CCN(CC)S(=O)(=O)c1ccc(C)c(NC(=S)N2CCN(Cc3ccc4c(c3)OCO4)CC2)c1`, 12.2 µM. The result for `NC(=O)c1ccccc1OCC(=O)N1CCC(Cc2ccccc2)CC1` reads 5.61 µM. With `Cn1c(=O)c2c(nc(NCCOc3ccc(C(C)(C)C)cc3)n2C)n(C)c1=O`, the IC50 was > 20 µM (inactive). As for `Cc1nc2ccccc2c2c1CC(C(C)(Cl)Br)O2` (configuration not stated), the IC50 is 5.82 µM. Turning to `O=C(Cc1csc(Nc2nc(=S)[nH]c3ccccc23)n1)NCCCN1CCN(c2ccccc2F)CC1`, the IC50 was > 20 µM (inactive). Regarding `CC(C)(C)OC(=O)NCCCCCc1cn(CC(=O)NCCCCCCCCCCC(=O)N2CCN(C(=O)OC(C)(C)C)CC2)nn1`, the half-inhibitory concentration (IC50) was 2.93 µM.

For the molecule `O=C(Nc1ccccc1)C1=C[C@H](C2CCCCC2)C[C@H](OCCCCO)O1`, the IC50 is 0.666 µM. The result for `C(#Cc1ccccc1)C[N+]1(CC#Cc2ccccc2)CCCC1` reads 5.3 µM; that for `COc1ccc(CN2CCC(C(=O)Nc3ccc(Oc4cccnc4)cc3)CC2)c(C)c1C`, 12.6 µM; that for `Cc1cc(/C=N/n2cnnc2)c(C)n1-c1ccc(OCc2ccccc2F)cc1`, 4.28 µM. For `CC(C)n1c(-c2ccco2)csc1=Nc1cccnc1` the value was 8.01 µM; for `CCOc1ccc(NC(=S)NNc2ccnc3cc(Cl)ccc23)cc1`, 5.36 µM; for `Cc1sc2ncnc(NCC(C)(C)N3CCOCC3)c2c1C`, 3.85 µM. For `COc1ccc(NS(=O)(=O)c2ccc(N3CCCCC3)c(N)c2)cc1`, the IC50 was 5.14 µM.
